Reference: PubChem BioAssay AID1963837 (Molecular Pharmacology Branch, DTP, NCI, 2024)

System: 843126-344-R-J1-PDC complex spheroid viability
Assay: Anticancer human tumor 843126-344-R-J1-PDC patient-derived melanoma cell line growth inhibition [POLQ]
Details: for IC50: curve of first compound; for viability, T/C: stronger effect = lower value
Method in brief: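 Patient-derived tumour cells were co-cultured with HUVEC and mesenchymal stem cells as multicellular spheroids at 37 °C. They were treated with POLQ inhibitors (novobiocin, ART-558, RP6685) alone or combined with other agents. Top concentrations were at or near clinical Cmax (otherwise 10 microM; SN-38 at 1 microM), decreasing in half-log steps.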

[1] = second compound 0.0316 µM, first compound 0.00316 µM
[2] = second compound 0.0316 µM, first compound 0.01 µM
[3] = second compound 0.0316 µM, first compound 0.0316 µM
[4] = second compound 0.0316 µM, first compound 0.1 µM
[5] = second compound 0.0316 µM, first compound 0.316 µM
[6] = second compound 0.0316 µM, first compound 1 µM
[7] = second compound 0.1 µM, first compound 0.00316 µM
[8] = second compound 0.1 µM, first compound 0.01 µM
[9] = second compound 0.1 µM, first compound 0.0316 µM
[10] = second compound 0.1 µM, first compound 0.1 µM
[11] = second compound 0.1 µM, first compound 0.316 µM
[12] = second compound 0.1 µM, first compound 1 µM
[13] = second compound 0.316 µM, first compound 0.00316 µM
[14] = second compound 0.316 µM, first compound 0.01 µM
[15] = second compound 0.316 µM, first compound 0.0316 µM
[16] = second compound 0.316 µM, first compound 0.1 µM
[17] = second compound 0.316 µM, first compound 0.316 µM
[18] = second compound 0.316 µM, first compound 1 µM
[19] = second compound 1 µM, first compound 0.00316 µM
[20] = second compound 1 µM, first compound 0.01 µM
[21] = second compound 1 µM, first compound 0.0316 µM
[22] = second compound 1 µM, first compound 0.1 µM
[23] = second compound 1 µM, first compound 0.316 µM
[24] = second compound 1 µM, first compound 1 µM
[25] = second compound 3.16 µM, first compound 0.00316 µM
[26] = second compound 3.16 µM, first compound 0.01 µM
[27] = second compound 3.16 µM, first compound 0.0316 µM
[28] = second compound 3.16 µM, first compound 0.1 µM
[29] = second compound 3.16 µM, first compound 0.316 µM
[30] = second compound 3.16 µM, first compound 1 µM
[31] = second compound 10 µM, first compound 0.00316 µM
[32] = second compound 10 µM, first compound 0.01 µM
[33] = second compound 10 µM, first compound 0.0316 µM
[34] = second compound 10 µM, first compound 0.1 µM
[35] = second compound 10 µM, first compound 0.316 µM
[36] = second compound 10 µM, first compound 1 µM
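Throughout, for viability, T/C: spheroids exposed to drugs for seven days before readout.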

Structure (SMILES): CCc1c2c(nc3ccc(O)cc13)-c1cc3c(c(=O)n1C2)COC(=O)[C@]3(O)CC + Cc1cccc(N(C)C(=O)C2C(O)CCN2c2nc(C)cc(C(F)(F)F)c2C#N)c1
- IC50 (second compound 0.0316 µM): 0.991 µM
- IC50 (second compound 0.1 µM): 0.749 µM
- IC50 (second compound 0.316 µM): 0.4 µM
- IC50 (second compound 1 µM): > 1 µM
- IC50 (second compound 3.16 µM): > 1 µM
- IC50 (second compound 10 µM): > 1 µM
- viability, T/C [1]: 73%
- viability, T/C [2]: 52.8%
- viability, T/C [3]: 66.4%
- viability, T/C [4]: 67.3%
- viability, T/C [5]: 54.6%
- viability, T/C [6]: 50.5%
- viability, T/C [7]: 72.8%
- viability, T/C [8]: 52.8%
- viability, T/C [9]: 60.6%
- viability, T/C [10]: 58.8%
- viability, T/C [11]: 60.8%
- viability, T/C [12]: 42.8%
- viability, T/C [13]: 70.5%
- viability, T/C [14]: 61.6%
- viability, T/C [15]: 58.3%
- viability, T/C [16]: 58.6%
- viability, T/C [17]: 53.6%
- viability, T/C [18]: 43.6%
- viability, T/C [19]: 66.6%
- viability, T/C [20]: 58.5%
- viability, T/C [21]: 55.1%
- viability, T/C [22]: 60.9%
- viability, T/C [23]: 59.6%
- viability, T/C [24]: 44.6%
- viability, T/C [25]: 67.5%
- viability, T/C [26]: 60.9%
- viability, T/C [27]: 50.3%
- viability, T/C [28]: 67.7%
- viability, T/C [29]: 66.1%
- viability, T/C [30]: 45.7%
- viability, T/C [31]: 64.8%
- viability, T/C [32]: 68.3%
- viability, T/C [33]: 67%
- viability, T/C [34]: 66.2%
- viability, T/C [35]: 58.6%
- viability, T/C [36]: 47.8%

Structure (SMILES): C=CCn1c(=O)c2cnc(Nc3ccc(N4CCN(C)CC4)cc3)nc2n1-c1cccc(C(C)(C)O)n1 + COC1C(OC(N)=O)C(O)C(Oc2ccc3c(O)c(NC(=O)c4ccc(O)c(CC=C(C)C)c4)c(=O)oc3c2C)OC1(C)C
- IC50 (second compound 0.0316 µM): > 1 µM
- IC50 (second compound 0.1 µM): > 1 µM
- IC50 (second compound 0.316 µM): > 1 µM
- IC50 (second compound 1 µM): > 1 µM
- IC50 (second compound 3.16 µM): > 1 µM
- IC50 (second compound 10 µM): > 1 µM
- viability, T/C [1]: 114%
- viability, T/C [2]: 84%
- viability, T/C [3]: 86.6%
- viability, T/C [4]: 81.5%
- viability, T/C [5]: 89.4%
- viability, T/C [6]: 80%
- viability, T/C [7]: 93.7%
- viability, T/C [8]: 90.4%
- viability, T/C [9]: 99.5%
- viability, T/C [10]: 82.8%
- viability, T/C [11]: 85.7%
- viability, T/C [12]: 70.6%
- viability, T/C [13]: 87%
- viability, T/C [14]: 115%
- viability, T/C [15]: 98.8%
- viability, T/C [16]: 88.5%
- viability, T/C [17]: 81.2%
- viability, T/C [18]: 86.6%
- viability, T/C [19]: 78.4%
- viability, T/C [20]: 90.3%
- viability, T/C [21]: 86.6%
- viability, T/C [22]: 85.1%
- viability, T/C [23]: 84.2%
- viability, T/C [24]: 76.9%
- viability, T/C [25]: 83.6%
- viability, T/C [26]: 106%
- viability, T/C [27]: 98.5%
- viability, T/C [28]: 72.7%
- viability, T/C [29]: 81.7%
- viability, T/C [30]: 84.2%
- viability, T/C [31]: 89.8%
- viability, T/C [32]: 97.4%
- viability, T/C [33]: 94.8%
- viability, T/C [34]: 102%
- viability, T/C [35]: 91.9%
- viability, T/C [36]: 65%

Structure (SMILES): CCc1cc2c(N3CCc4c(cc(Cn5ccnc5)cc4-c4cn(C)nc4C(F)(F)F)C3=O)ccnc2c(OC)n1 + Nc1ccc(C#CCN(C(=O)Cc2ncc(C(F)(F)F)cc2C(F)(F)F)c2ccc(F)cc2)nn1
- IC50 (second compound 0.0316 µM): > 10 µM
- IC50 (second compound 0.1 µM): > 10 µM
- IC50 (second compound 0.316 µM): > 10 µM
- IC50 (second compound 1 µM): > 10 µM
- IC50 (second compound 3.16 µM): > 10 µM
- IC50 (second compound 10 µM): > 10 µM
- viability, T/C [3]: 91.6%
- viability, T/C [4]: 90.2%
- viability, T/C [5]: 82%
- viability, T/C [6]: 86.8%
- viability, T/C (second compound 0.0316 µM, first compound 3.16 µM): 64.7%
- viability, T/C (second compound 0.0316 µM, first compound 10 µM): 61.6%
- viability, T/C [9]: 107%
- viability, T/C [10]: 100%
- viability, T/C [11]: 81.5%
- viability, T/C [12]: 77.1%
- viability, T/C (second compound 0.1 µM, first compound 3.16 µM): 88%
- viability, T/C (second compound 0.1 µM, first compound 10 µM): 61.6%
- viability, T/C [15]: 101%
- viability, T/C [16]: 100%
- viability, T/C [17]: 96.6%
- viability, T/C [18]: 82.3%
- viability, T/C (second compound 0.316 µM, first compound 3.16 µM): 72.9%
- viability, T/C (second compound 0.316 µM, first compound 10 µM): 61.5%
- viability, T/C [21]: 96.6%
- viability, T/C [22]: 99.3%
- viability, T/C [23]: 94.4%
- viability, T/C [24]: 72.2%
- viability, T/C (second compound 1 µM, first compound 3.16 µM): 88.4%
- viability, T/C (second compound 1 µM, first compound 10 µM): 58.2%
- viability, T/C [27]: 94.5%
- viability, T/C [28]: 90.9%
- viability, T/C [29]: 96.7%
- viability, T/C [30]: 80.1%
- viability, T/C (second compound 3.16 µM, first compound 3.16 µM): 82.7%
- viability, T/C (second compound 3.16 µM, first compound 10 µM): 56.8%
- viability, T/C [33]: 83%
- viability, T/C [34]: 76.6%
- viability, T/C [35]: 75.8%
- viability, T/C [36]: 73.5%
- viability, T/C (second compound 10 µM, first compound 3.16 µM): 80.2%
- viability, T/C (second compound 10 µM, first compound 10 µM): 55.9%

Structure (SMILES): Cn1ncnc1[C@H]1c2n[nH]c(=O)c3cc(F)cc(c23)N[C@@H]1c1ccc(F)cc1 + Nc1ccc(C#CCN(C(=O)Cc2ncc(C(F)(F)F)cc2C(F)(F)F)c2ccc(F)cc2)nn1
- IC50 (second compound 0.0316 µM): > 0.1 µM
- IC50 (second compound 0.1 µM): > 0.1 µM
- IC50 (second compound 0.316 µM): > 0.1 µM
- IC50 (second compound 1 µM): > 0.1 µM
- IC50 (second compound 3.16 µM): > 0.1 µM
- IC50 (second compound 10 µM): > 0.1 µM
- viability, T/C (second compound 0.0316 µM, first compound 0.000316 µM): 87.1%
- viability, T/C (second compound 0.0316 µM, first compound 0.001 µM): 93.9%
- viability, T/C [1]: 101%
- viability, T/C [2]: 93.4%
- viability, T/C [3]: 96.1%
- viability, T/C [4]: 82.6%
- viability, T/C (second compound 0.1 µM, first compound 0.000316 µM): 89%
- viability, T/C (second compound 0.1 µM, first compound 0.001 µM): 91.7%
- viability, T/C [7]: 107%
- viability, T/C [8]: 96.2%
- viability, T/C [9]: 99.7%
- viability, T/C [10]: 97.7%
- viability, T/C (second compound 0.316 µM, first compound 0.000316 µM): 108%
- viability, T/C (second compound 0.316 µM, first compound 0.001 µM): 93.3%
- viability, T/C [13]: 111%
- viability, T/C [14]: 93.2%
- viability, T/C [15]: 99.8%
- viability, T/C [16]: 99.8%
- viability, T/C (second compound 1 µM, first compound 0.000316 µM): 97.3%
- viability, T/C (second compound 1 µM, first compound 0.001 µM): 102%
- viability, T/C [19]: 87.9%
- viability, T/C [20]: 106%
- viability, T/C [21]: 104%
- viability, T/C [22]: 73.1%
- viability, T/C (second compound 3.16 µM, first compound 0.000316 µM): 93.3%
- viability, T/C (second compound 3.16 µM, first compound 0.001 µM): 102%
- viability, T/C [25]: 88%
- viability, T/C [26]: 95.7%
- viability, T/C [27]: 102%
- viability, T/C [28]: 94.8%
- viability, T/C (second compound 10 µM, first compound 0.000316 µM): 101%
- viability, T/C (second compound 10 µM, first compound 0.001 µM): 83.6%
- viability, T/C [31]: 97%
- viability, T/C [32]: 89.5%
- viability, T/C [33]: 88.6%
- viability, T/C [34]: 80.2%
